Test results from patent US8541415B2 (University of Pittsburgh—of the Commonwealth System of …, priority 2008, dated 2013).
Read-outs that look alike come from different tables or passages of the source.

Experiments:
HIV-1 strain NL4-3 = assay: microbe, parasite or virus in culture; format: cell-based; details: for activity at 5 µM / IC50: Human immunodeficiency virus 1, NL43, U-87 MG; for activity at 5 µM: 96 h, read-out: HIV p24% Control @ day 4; for Inhibition of pseudotyped NL43 HIV-1 replication: FIGS. 1-3
Description: (§1) Lead compounds from the yeast screen were evaluated for activity in a Nef-dependent HIV replication assay. For these experiments, U87MG astroglioma cells engineered to express the HIV-1 co-receptors CD4 and CXCR4 were employed. Replication of HIV-1 NL4-3 is dependent upon an intact viral nef gene in these cells, making this system suitable to evaluate leads from the Nef-directed screen. U87MG cells were infected with HIV-1 in the presence of the top five compounds identified in the yeast screen, and HIV replication was monitored as p24 release into the culture supernatant 4 days later, as known in the art. As known in the art, “p24” refers to a constituent protein of the capsid of HIV-1.
(§2) The data of Table 1 are presented as percent p24 release relative to control in the absence of compound. […] Data are expressed as percent viable cells relative to untreated control culture.
It is understood that “strongest” and like terms in the context of inhibitors identified in a library screen refer to compounds that inhibit at the lowest concentrations. For these experiments, the U87MG astroglioma cell line was used as a model system. […] U87MG cells were infected with HIV-1 strain NL4-3 as well as an isogenic variant that fails to express Nef (ΔNef), over a wide range of viral titers and in the presence of each compound at 5 μM. Viral replication was assessed as HIV p24 antigen release into the culture supernatant 4 and/or 5 days later. Methods for the assay of p24 in culture supernatant are well known in the art and include, for example without limitation, immunochemical methods.

U87MG cells = details: human
Description: as §1, §2

Hck alone = target: T1, Hck alone (Homo sapiens, UniProt P08631); assay: In vitro kinase assay of Hck alone (Z'-LYTE, peptide substrate); format: biochemical; details: Z'-Lyte dose-response, FIG. 7
T1 construct: made in house; host or cells: Sf9 insect cells
T1 sequence (P08631 with tags, fused parts or gaps isoform P08631-3): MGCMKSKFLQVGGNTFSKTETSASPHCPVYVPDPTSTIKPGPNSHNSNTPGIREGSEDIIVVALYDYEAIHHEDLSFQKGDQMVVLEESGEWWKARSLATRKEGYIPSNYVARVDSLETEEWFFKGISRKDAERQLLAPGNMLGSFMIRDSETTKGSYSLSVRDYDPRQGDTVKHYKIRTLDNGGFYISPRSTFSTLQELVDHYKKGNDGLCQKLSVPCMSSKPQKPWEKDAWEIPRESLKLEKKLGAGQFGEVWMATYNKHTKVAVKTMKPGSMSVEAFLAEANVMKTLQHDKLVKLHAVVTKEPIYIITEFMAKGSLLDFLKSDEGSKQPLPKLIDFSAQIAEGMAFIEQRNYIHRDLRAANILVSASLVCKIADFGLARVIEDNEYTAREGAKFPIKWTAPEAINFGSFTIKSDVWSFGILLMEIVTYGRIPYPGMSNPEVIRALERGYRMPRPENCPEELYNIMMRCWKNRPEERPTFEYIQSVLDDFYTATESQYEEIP

Nef:Hck-YEEI complex [1] = target: T2, Nef:Hck-YEEI complex (Homo sapiens, UniProt P08631); details: Z'-Lyte dose-response, FIG. 7
Target sequence in this assay (P08631 with tags, fused parts or gaps isoform P08631-3, other chains not shown): as the sequence (P08631 with tags, fused parts or gaps isoform P08631-3) above
Nef:Hck-YEEI complex [2] = target: T2, Nef:Hck-YEEI complex
Target sequence in this assay (P03407 2-210): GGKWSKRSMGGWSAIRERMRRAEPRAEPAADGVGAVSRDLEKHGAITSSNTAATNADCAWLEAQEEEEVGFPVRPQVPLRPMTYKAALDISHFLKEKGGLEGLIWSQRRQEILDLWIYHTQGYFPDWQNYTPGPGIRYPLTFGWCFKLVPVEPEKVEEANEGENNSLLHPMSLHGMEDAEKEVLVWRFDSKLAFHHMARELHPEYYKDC
Target sequence in this assay (P08631 other isoform, or with tags, fused parts or gaps): as the sequence (P08631 with tags, fused parts or gaps isoform P08631-3) above
Description: For the liquid growth assay, yeast strain W303a was co-transformed with the required plasmids, seeded at an initial density of OD600nm=0.05 units in SD/-U-T medium, and incubated for 21 h at 30° C.
Aliquots of yeast cultures used for the spot assay were grown in SD/-U-T medium plus galactose for 18 h. […] Aliquots of each lysate (0.2 OD600nm units) were separated via SDS-PAGE, transferred to PVDF membranes, and probed for protein phosphotyrosine content with a combination of the anti-phosphotyrosine antibodies PY99 (Santa Cruz Biotechnology, Santa Cruz, Calif.) and PY20 (Transduction Laboratories, Lexington, Ky.).
Yeast strain W303a was co-transformed with Hck-YEEI (SE0 ID NO: 4) and Nef expression plasmids and grown to an OD600nm of 0.05. Cells (100 μL) were plated in duplicate wells of a 96-well plate in the presence of each compound from the Chempiv kinase-biased inhibitor library (Chempiv, Inc., San Diego, Calif.). All compounds were initially screened at 10 μM with 0.5% DMSO as carrier solvent. […] Cultures were incubated at 30° C., and the OD60nm was measured at 0 and 22 h.

[3] = system: HIV-ΔNef mutant (NL4-3 that fails to express Nef); assay: Replication of Nef-defective HIV in U87MG cells (p24 ELISA); details: p24 ELISA day 5, FIG. 8, for Ma even at 10 μM
Description: HIV p24 release was determined by ELISA at day 5 following the addition of the DFP-analogs. […] U87MG cells were infected a viral density of 500 pg/ml. p24 as determined by ELISA.
To address whether Nef is required for the anti-retroviral effects of these compounds, HIV replication assays in U87MG cells infected with either wild-type or Nef-defective HIV were carried out.
Viral replication was monitored by measuring p24 protein levels in the culture supernatant 4 days after infection by standard ELISA-based techniques. Test compounds were added to the culture 30 min prior to infection with HIV, and DMSO was used as the carrier solvent at a final concentration of 0.1%.
Nef:Hck-YEEI complex [4] = details: Z'-Lyte dose-response, FIG. 7A
Nef:Hck-YEEI complex [5] = target: T2, Nef:Hck-YEEI complex; assay: biochemical
Target sequence in this assay (P08631 with tags, fused parts or gaps isoform P08631-3, other chains not shown): as the sequence (P08631 with tags, fused parts or gaps isoform P08631-3) above

## Nc1ncnc2oc(-c3ccccc3)c(-c3ccccc3)c12 [IIIi]
HIV-1 strain NL4-3
  activity at 5 µM: 72%
HIV-1 strain NL4-3; data not shown
  Anti-retroviral activity: very weak anti-retroviral activity
U87MG cells; 96 h, 30 μM
  Cytotoxicity, Viable cell % control: 94 % control
Hck alone
  Inhibition of Hck alone: virtually inactive
Nef:Hck-YEEI complex [1]
  Inhibition of Nef:Hck complex: virtually inactive

## O=S(=O)(Nc1nc2ccccc2nc1Nc1ccc2c(c1)OCCO2)c1ccc(Cl)cc1 [Compound Ia, 4-Chloro-N-[3-(2,3-dihydro-benzo[1,4]dioxin-6-ylamino)-quinoxalin-2-yl]-benzenesulfonamide]
HIV-1 strain NL4-3; read-out: IC50, HIV replication, U87MG cells expressing CD4 and CXCR4, HIV-1 NL4-3, concentration-response
  IC50: ~0.13 µM
HIV-1 strain NL4-3; U87MG cells, p24 release 4 days later, leads from yeast screen
  Suppression of HIV replication: significantly suppressed HIV replication
U87MG cells
  Concentration up to which not cytotoxic: > 50 µM
other
  melting point: 257 to 258 °C

## CN1CCN(C2CCC(n3cc(-c4ccc(Oc5ccccc5)cc4)c4c(N)ncnc43)CC2)CC1 (stereo not shown) [Compound A-419259]
Nef:Hck-YEEI complex [2]; inhibitor-treated yeast cultures, anti-phosphotyrosine immunoblot
  Tyrosine phosphorylation of yeast proteins: decrease in tyrosine phosphorylation of yeast proteins to control levels
Nef:Hck-YEEI complex [2]; liquid yeast cultures, 5 μM
  Reversal of growth arrest compared with Nef PxxP mutation: nearly as effective as mutation of the Nef PxxP motif
Nef:Hck-YEEI complex [2]; liquid yeast cultures, OD 600 nm, at both 1 μM and 5 μM vs untreated cultures
  Reversal of growth suppression induced by Nef:Hck-YEEI: significantly reversed the growth suppression

## c1ccc(-c2oc3ncnc(NCCCc4ccco4)c3c2-c2ccccc2)cc1 [IIIq, N-(3-(furan-2-yl)propyl) 5,6-diphenylfuro[2,3-d]pyrimidin-4-amine]
HIV-1 strain NL4-3; 120 h, read-out: IC50, wild-type HIV replication, U87MG cells, wild-type NL4-3, p24 ELISA day 5, FIG. 8
  IC50: ≤ 1 µM
Nef:Hck-YEEI complex [1]
  Inhibition of Nef:Hck complex: enhanced both potency and efficacy for the Nef:Hck complex vs. Hck alone
[3]
  Effect on replication of HIV-ΔNef mutant: Neither IIIm nor IIIq shows inhibition

## O=S(=O)(Nc1nc2ccccc2nc1Nc1cccc2ccccc12)c1ccc(Cl)cc1 [Compound Q22, 4-Chloro-N-[3-(naphthalen-1-ylamino)-quinoxalin-2-yl]-benzenesulfonamide]
HIV-1 strain NL4-3; U87MG cells infected with wild-type or Nef-deficient virus, FIG. 3
  Selectivity wild-type vs Nef-deficient NL43 HIV-1: selective and more potent at inhibiting the replication of wild-type virus
HIV-1 strain NL4-3; U87MG cells
  Inhibition of pseudotyped NL43 HIV-1 replication: potent inhibitors of viral infection
other
  melting point: 262 to 265 °C

## Nc1ccc(S(=O)(=O)Nc2nc3ccccc3nc2Nc2ccc3ccccc3c2)cc1 [Compound Q6]
HIV-1 strain NL4-3
  activity at 5 µM: 40%
U87MG cells; 96 h, 30 μM
  Cytotoxicity, Viable cell % control: 92 % control

## c1ccc(-c2oc3ncnc(NCCN4CCOCC4)c3c2-c2ccccc2)cc1 [IIIe]
HIV-1 strain NL4-3
  activity at 5 µM: 39%
U87MG cells; 96 h, 30 μM
  Cytotoxicity, Viable cell % control: 89 % control

## Cc1ccc(-c2oc3ncnc(N)c3c2-c2ccc(C)cc2)cc1 [IIId]
HIV-1 strain NL4-3
  activity at 5 µM: 29%
U87MG cells; 96 h, 30 μM
  Cytotoxicity, Viable cell % control: 90 % control

## O=S(=O)(Nc1nc2ccccc2nc1Nc1ccc2ccccc2c1)c1ccc(Cl)cc1 [Compound Q21, 4-Chloro-N-[3-(naphthalen-2-ylamino)-quinoxalin-2-yl]-benzenesulfonamide]
HIV-1 strain NL4-3; U87MG cells
  Inhibition of pseudotyped NL43 HIV-1 replication: potent inhibitors of viral infection
other
  melting point: 222 to 224 °C

## COc1ccc(Nc2nc3ccccc3nc2NS(=O)(=O)c2ccccc2)cc1 [Compound Q20]
HIV-1 strain NL4-3
  activity at 5 µM: 119%
U87MG cells; 96 h, 30 μM
  Cytotoxicity, Viable cell % control: 89 % control

## COc1ccc(-c2oc3ncnc(N)c3c2-c2ccccc2)cc1 [IIIj]
HIV-1 strain NL4-3
  activity at 5 µM: 73%
U87MG cells; 96 h, 30 μM
  Cytotoxicity, Viable cell % control: 97 % control

## OCCCNc1ncnc2oc(-c3ccccc3)c(-c3ccccc3)c12 [IIIa, 3-(5,6-diphenylfuro[2,3-d]pyrimidin-4-ylamino)propan-1-ol]
HIV-1 strain NL4-3
  activity at 5 µM: 20%
HIV-1 strain NL4-3; 120 h, read-out: IC50, HIV-1 replication (viral p24 release), U87MG cells, HIV strain NL4-3, p24 ELISA 5 days later, FIG. 5C
  IC50: 6 µM
HIV-1 strain NL4-3; U87MG cells, HIV-1 NL4-3, compound at 5 μM, 4 and/or 5 days, FIG. 6
  HIV replication, p24 release: undetectable levels
HIV-1 strain NL4-3; U87MG cells, wild-type NL4-3, p24 ELISA day 5, FIG. 8
  IC50, wild-type HIV replication: low μM range
U87MG cells; 96 h, 30 μM
  Cytotoxicity against U87MG cells: neither DFP-4AP nor any of the other diphenylfuropyrimidine analogs displayed significant cytotoxicity
  Cytotoxicity, Viable cell % control: 95 % control
Nef:Hck-YEEI complex [4]
  Increase in potency in the presence of Nef (Nef:Hck complex vs Hck alone): 2 fold
Nef:Hck-YEEI complex [5]; IC50, Nef-induced Hck activation (Nef:Hck complex kinase activity), in vitro, peptide substrate, triplicate, FIG. 5B legend
  IC50: 4 µM
Nef:Hck-YEEI complex [5]; IC50, kinase activity of Nef:Hck-YEEI complex, dose response study, FIG. 5B, text b88
  IC50: ~3 µM
[3]
  Effect on replication of HIV-ΔNef mutant: no effect
